How the values were obtained:
[1] = In vivo imaging of deep vein thrombosis with Tc-99m labeled thrombus targeting peptide, canine model; conditions: mongrel, dog, thrombus, iv, total radioactivity
Text: (§1) Mongrel dogs (25–35 lb., fasted overnight) were sedated with a combination of ketamine and aceprozamine intramuscularly and then anesthetized with sodium pentabarbital intravenously. In each animal, an 18-gauge angiocath was inserted in the distal half of the right femoral vein and a 5 mm or 8 mm Dacron®-entwined stainless steel embolization coil (Cook Co., Bloomington Ind.) was placed in the femoral vein at approximately mid-femur. The catheter was removed, the wound sutured and the placement of the coil documented by X-ray. The animals were then allowed to recover overnight.
(§2) One day following coil placement, each animal was re-anesthetized, intravenous saline drips placed in each foreleg and a urinary bladder catheter inserted to collect urine. The animal was placed supine under a gamma camera equipped with a low-energy, all purpose collimator and photopeaked for Tc-99m. […] The second line was maintained for blood collection.
(§3) Gamma camera imaging was started simultaneously with injection. Anterior images over the heart were acquired as a dynamic study (10 sec image acquisitions) over the first 10 min, and then as static images at 1, 2, 3 and 4h post-injection. Anterior images over the legs were acquired for 500,000 counts or 20 min (whichever is shorter), at approximately 10–20 min, and at approximately 1, 2, 3 and 4h post-injection. Leg images were collected with a lead shield placed over the bladder.
(§4) Following collection of the final image, each animal was deeply anesthetized with pentobarbital. Two blood samples were collected using a heparinized syringe followed by a euthanizing dose of saturated potassium chloride solution administered by intercardiac or bolus intravenous injection. […] The thrombus, coil and coil Dacron fibres were then dissected free of the vessel. The thrombus, saline-washed vessel samples, coil and coil Dacron® fibres were separated, and each sample was placed in a pre-weighed test tube. The samples were weighed and counted in a gamma well counter in the Tc-99m channel, along with known fractions of the injected doses.
(§5) Fresh thrombus weight, percent injected dose (% ID)/g in the thrombus and blood obtained just prior to euthanasia and thrombus/blood and thrombus/muscle ratios were determined. From the computer-stored images, thrombus/background ratios were determined by analysis of the counts/pixel measured in regions-of-interest (ROI) drawn over the thrombus and adjacent muscle.

thrombus = test: as above; conditions: Tc-99m labeled peptide, i.v., dog, ratio
Text: as §1, §2, §3, §4, §5

For CC(=O)NCSC[C@H](NC(=O)CNC(=O)CNC(=O)[C@@H]1CSCC(=O)N[C@H](Cc2ccc(O)cc2)C(=O)N[C@@H](Cc2ccc(C(=N)N)cc2)C(=O)NCC(=O)N[C@@H](CC(=O)O)C(=O)N1)C(=O)NCC(=O)N[C@@H](CSCNC(C)=O)C(=O)NCC(=O)NCC(=O)N[C@@H](CSCC(=O)NCCCC[C@H](NC(=O)CSC[C@H](NC(=O)CNC(=O)CNC(=O)[C@H](CSCNC(C)=O)NC(=O)CNC(=O)[C@H](CSCNC(C)=O)NC(=O)CNC(=O)CNC(=O)[C@@H]1CSCC(=O)N[C@H](Cc2ccc(O)cc2)C(=O)N[C@@H](Cc2ccc(C(=N)N)cc2)C(=O)NCC(=O)N[C@@H](CC(=O)O)C(=O)N1)C(N)=O)C(=O)NCCCC[C@H](N)C(=O)NCC(=O)N[C@@H](CS)C(N)=O)C(N)=O [Peptide P747, (CH2CO.YD.Amp.GDCGGCAcmGCAcmGGC.amide)2(CH2CO)2K(ε-K)GC.amide], the tissue uptake at 4 h [1] was 0.043 %ID/g, the Thrombus/Blood (thrombus) was 15 and the Thrombus/Muscle (thrombus) was 70.

Source: patent US7238340B1, “Monoamine, diamide, thiol-containing metal chelating agents” (CIS bio international, priority 1991, dated 2007)
